Several values for one entry are separate records, joined by “and”; a condition that tells them apart may be missing. Identical values can stand only once. Entries after “also recorded” stand apart in the source; their conditions may differ. Like-named read-outs stand apart in the source and are kept apart here.
How the values were obtained:
NET [1] = test system: NET; parameters: method as in PMID 20679472, PMID 9290077; settings: mouse myocardium; cited from earlier work
[2] = target: T1, norepinephrine transporter (NET) (Mus musculus, UniProt O55192); assay: PET/CT myocardial tracer uptake with desipramine blocking (specificity for NET); assay type: in vivo, FVB/N mice; settings: 20 mg/kg desipramine HCl i.p. 10 min before tracer i.v.
T1 construct: from tissue; host or cells: myocardium (sympathetic nerve terminals) of living FVB/N mice, in vivo PET/CT
Experimental: (§1) PET/computed tomography (CT) scans were performed with a calibrated SuperArgus PET/CT scanner (Sedecal, Madrid, Spain) with an axial field of view of 4.8 cm and a spatial resolution of 1.6–1.7 mm (full width at half maximum). Animals were under anaesthesia with ~ 2.5% isoflurane in oxygen/air (1:1) for tracer injection into the tail vein and during the scan. […] For scans without kinetic modelling, tracer was injected into mouse tail vein on scanner bed and the scan was started 1 min p.i. For kinetic modelling, [^11C]mHED was injected using the shunt system (see “Input function” section) on the scanner bed. Depth of anaesthesia was monitored by measuring the respiratory rate (SA Instruments, Inc., Stony Brook, USA). Body temperature was monitored by a rectal probe and kept at 37 °C by a heated air stream (37 °C). […] PET scans were followed by a CT for anatomical orientation.
Two [^11C]mHED scans (one baseline, one for kinetic modelling) were excluded from further analysis due to technical problems before or during the scan, respectively (not included in Table 1). […] Tissue radioactivity was either expressed as kBq/cm^3 or normalized to the injected dose per g body weight (kBq/g) and expressed as SUV, assuming a tissue density of 1 g/cm^3. […]

mouse myocardium = assay: [^11C]mHED PET kinetic (compartment) modelling with arteriovenous shunt input function; assay type: in vivo, FVB/N mice; settings: mean of 3 scans (SD)
Experimental: as §1
For kinetic modelling, an arteriovenous shunt system was applied to record the coincidences of arterial blood (Twilite, Swisstrace, Zurich, Switzerland) simultaneously with the PET data acquisition (Additional file 1). The resulting blood coincidences were transformed to Bq/ml with a calibration factor determined from simultaneous measurements of an [^11C]mHED solution in the PET scanner and the blood counter. Next, the blood Bq/ml was multiplied with fitted Eq. 2 to calculate the plasma activity concentration. Finally, the plasma Bq/ml was multiplied with fitted Eq. 1 to receive the parent tracer Bq/ml in plasma, which is the input function.
PET kinetic modelling with R was performed with a one- and three two-tissue compartment models according to Eq. 4,4 CPET=1-vb×Wmodel⊗Ca+vb×Cb where CPET is the activity concentration in the PET image, either as kBq/cm^3 or normalised as SUV, vb is the partial volume of blood in the region-of-interest (potentially including interstitial space), Wmodel is the model-dependent weighting function. Ca is the parent tracer activity concentration in the arterial plasma (input function, kBq/ml, or SUV), and Cb is the whole blood activity concentration as calculated from the blood coincidences, in kBq/cm^3 or as SUV.
WTCM1 for the one-tissue compartment model (TCM1, Fig. 2a) corresponds to K1 × exp(− k2 × t), with t as time, K1 and k2 the clearance term from plasma to tissue and rate constant back, respectively. WTCM2p and WTCM2s for the two-tissue compartment models with parallel (TCM2p, Fig. 2b) and serial (TCM2s, Fig. 2c) tissue compartments, respectively, were according to Eqs. 5–10 [16]. In the case of the TCM2p, K1, k2, K3, and k4 correspond to φ1, θ1, φ2, and θ2, respectively, of Eq. 5. WTCM2v for the two-tissue compartment model in Fig. 2d (TCM2v) was numerically solved from the differential equation system in Eqs. 11 and 12 with the R package deSolve and the ode function, with 1-s time intervals.
Besides the transfer clearance or rate constants K1, k2, k3 (or K3 for TCM2p), and k4, vb was included as a parameter to fit. Equation 3 was fit to the experimental TACs applying the optim minimization function of R.
Fits were run with multiple starts with a matrix of 101 sets of random start parameters between lower and upper limits for K1, k2, k3 (or K3), k4, and vb (Additional file 1: Table S1). The activity concentrations in the individual tissue compartments were simulated by numerically solving the respective differential equation systems for TCM2s and TCM2v and from the analytical solutions for TCM2p (the two exponential terms of Eq. 5). Calculations were performed in parallel on a 32 core workstation. Best fits were chosen based on the sum of squared residues (SSR) between predicted and experimental TACs. […] Correlations between parameters were calculated with the lm, cor, and cor.test functions of R and were considered significant at p < 0.05.

myocardium = test system: myocardium; parameters: method as in PMID 27230922; settings: humans, recent PET study; cited from earlier work
[3] = target: T1, norepinephrine transporter (NET); assay: Dose dependency of myocardial [^11C]mHED uptake by PET/CT (NET saturation); assay type: in vivo, FVB/N mice; settings: mouse myocardium
Experimental: as §1
For quantitative analyses, PET data in NIfTI file format were read with the R package oro.nifti version 0.9.1, and a cube of 36 × 30 × 30 voxels (8.7 × 7.3 × 7.3 mm^3) including the heart as judged from the PET and CT data was cropped. A liver mask was defined including all voxels with a slope ≥ − 0.012 SUV/min between 11 and 48 min p.i. (the slope limit was empirically defined by visual inspection of the results, Fig. 1). PET data corresponding to the liver mask were excluded. The myocardium mask was defined from the remaining data as the volume with highest SUV between 3 and 11 min p.i., corresponding to 0.5% of the individual body weight. Average SUV was calculated for the indicated time windows (stated as SUVstart time–end time). The SUV of the neck region was obtained from a spherical region of interest with 3 mm radius, placed over the shoulders, close to the spine.
The dose of combined administered [^11C]mHED and metaraminol (precursor for radiosynthesis) at half-maximal NET saturation in nmol/kg (D50) was calculated from the myocardial SUV1–31 min at various doses (D). […] Fit parameters were SUV1–31 min at indefinitely low dose (SUVmax), SUV1–31 min at full NET saturation, i.e. SUV1–31 min for nondisplaceable tracer (SUVmin) and D50, according to Eq. 3 which was fit to the data with the function nls of R.3 SUV1-31min=SUVmax-SUVmin×D50/D50+D+SUVmin

[4] = after [^11C]mHED i.v. injection
Experimental: Mice were injected awake with formulated [^11C]mHED (26–173 MBq) via the tail vein. Animals were anaesthetized with 5% isoflurane in oxygen/air (1:1) and euthanized by decapitation at the indicated time points to collect blood, urine, and heart tissue. Plasma was separated from blood by centrifugation (5000×g for 5 min at 4 °C). Plasma and urine were each mixed with equal volumes of ice-cold acetonitrile (MeCN) for protein precipitation. The dissected heart was homogenized in 2 ml PBS, and proteins were precipitated with 2 ml ice-cold MeCN. The samples were centrifuged (5000×g, 4 °C), and the supernatants were filtered and analysed by radio-UPLC (Waters Acquity UPLC HSS T3 1.8 µm) with the following separation conditions: 10 mM NH4HCO3 (solvent A), MeCN (solvent B); 0.0–1.0 min, 5–30% B; 1.0–1.7 min, 30% B; 1.7–1.8 min, 30–5% B and 1.8–3.0 min, 5% B at a flow rate of 0.5 ml/min (retention time: 1.75 min). The fraction of parent tracer radioactivity to total radioactivity in plasma (fparent) was calculated as the ratio of radioactivity in the [^11C]mHED peak and total detected radioactivity in the chromatogram.
In Eq. 1, q1 to q4 are the fit parameters (q3 was estimated and fixed) and t is the time. Equation 1 was empirically defined, taking into account the exponential functions of time under linear kinetics and a lag phase for metabolite formation.

NET [5] = settings: cited from earlier work; for D50: rat left ventricle wall
[6] = Experimental: For determining activity concentration ratios of plasma to whole blood in mice, 11–90 MBq [^11C]mHED were injected intravenously (i.v.) via the tail vein in awake mice. After anaesthesia, animals were euthanized at the indicated time points and blood was collected. An aliquot was centrifuged as described above to separate plasma from blood cells. Plasma and whole blood activity concentrations (Bq/ml) were determined by a gamma counter (Wizard 1480; Perkin Elmer) to calculate the plasma/whole blood activity concentration ratio (ρplasma/blood). Bi-exponential function (Eq. 2) was fit to ρplasma/blood over time using the nls function of R.2 ρplasma/blood=r1×exp-r3×t-r2×exp-r4×t+r2
In Eq. 2, r1 to r4 are the fit parameters and t is the time.

NET [7] = test system: NET; parameters: method as in PMID 21555377, PMID 23601914; settings: rabbits; cited from earlier work
NET [8] = test system: NET; parameters: method as in PMID 21555377, PMID 23601914; settings: rats; cited from earlier work
NET [9] = test system: NET; parameters: method as in PMID 21555377, PMID 23601914; settings: nonhuman primates; cited from earlier work
NET [10] = test system: NET; parameters: method as in PMID 21555377, PMID 23601914; settings: human subjects; cited from earlier work
[11] = volume-of-interest 0.5% body volume

T1 sequence (O55192 whole entry): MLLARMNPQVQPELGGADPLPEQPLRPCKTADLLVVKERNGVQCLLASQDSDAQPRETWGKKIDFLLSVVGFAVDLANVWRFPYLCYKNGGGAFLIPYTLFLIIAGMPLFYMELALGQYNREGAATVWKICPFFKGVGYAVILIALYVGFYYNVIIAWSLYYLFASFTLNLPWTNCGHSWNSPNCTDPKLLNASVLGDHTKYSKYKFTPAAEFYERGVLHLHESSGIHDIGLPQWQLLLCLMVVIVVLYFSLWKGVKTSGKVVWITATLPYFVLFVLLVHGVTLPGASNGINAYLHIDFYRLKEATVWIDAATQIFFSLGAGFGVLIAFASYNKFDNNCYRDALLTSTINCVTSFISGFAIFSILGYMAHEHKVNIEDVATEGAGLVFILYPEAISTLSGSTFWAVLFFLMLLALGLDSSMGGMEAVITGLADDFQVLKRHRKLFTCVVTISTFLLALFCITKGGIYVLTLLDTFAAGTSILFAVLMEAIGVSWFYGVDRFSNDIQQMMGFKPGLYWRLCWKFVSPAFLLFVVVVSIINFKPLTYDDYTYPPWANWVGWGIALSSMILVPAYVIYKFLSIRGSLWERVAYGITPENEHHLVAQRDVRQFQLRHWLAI

C[C@H](N[11CH3])[C@H](O)c1cccc(O)c1 [[^11C]mHED, [^11C]meta-hydroxyephedrine]
Reported D50 (NET [1]): 132 nmol/kg | Blocking of myocardial tracer uptake by desipramine [2]: significantly reduced; also recorded: blocking effect was observed | K1 (mouse myocardium; TCM1): 0.87 ± 0.11 ml/min/cm^3 and 0.868 (0.113) ml/min/cm^3 | k2 (mouse myocardium; TCM1): 0.029 (0.01) 1/min | K1 (mouse myocardium; TCM2p): 0.499 (0.153) ml/min/cm^3 | K3 (mouse myocardium; TCM2p): 0.448 (0.114) ml/min/cm^3 | k2 (mouse myocardium; TCM2p): 0.0125 (0.0034) 1/min | k4 (mouse myocardium; TCM2p): 0.134 (0.040) 1/min | K1 (mouse myocardium; TCM2s): 0.947 ± 0.146 ml/min/cm^3 and 0.947 (0.146) ml/min/cm^3 | k2 (mouse myocardium; TCM2s): 0.0672 (0.0062) 1/min | k3 (mouse myocardium; TCM2s): 0.0541 (0.0263) 1/min | k4 (mouse myocardium; TCM2s): 0.0254 (0.0117) 1/min | K1 (mouse myocardium; TCM2v): 0.947 ± 0.146 ml/min/cm^3 and 0.947 (0.146) ml/min/cm^3 | k2 (mouse myocardium; TCM2v): 0.0672 (0.0062) 1/min | k3 (mouse myocardium; TCM2v): 0.0669 (0.0344) 1/min | k4 (mouse myocardium; TCM2v): 0.0125 (0.0034) 1/min | K1 of [^11C]mHED uptake (myocardium): up to 0.6 ml/min/g | D50 (dose of combined [^11C]mHED and metaraminol at half-maximal NET saturation) ([3]; from SUV1–31 min, fit Eq. 3, n = 14 scans): 88.3 nmol/kg | D50 (dose at half-maximal NET saturation) ([3]; from SUV1–61 min (complete scan duration)): 89.1 nmol/kg | Fit SUVmax (SUV1–31 min at indefinitely low dose) [3, 11]: 4.4 | Fit SUVmin (SUV1–31 min at full NET saturation, nondisplaceable tracer) [3, 11]: 1.0 | Radiometabolite in plasma and urine ([4]; mouse): detected a radiometabolite in plasma and urine | Radiometabolite in myocardium ([4]; mouse heart extract): no radiometabolite were detected | Reported D50 (NET [5]; rat myocardium): 91 nmol/kg | ρplasma/blood (plasma/whole blood activity concentration ratio) ([6]; at 3 min): ~ 0.6 | ρplasma/blood (plasma/whole blood activity concentration ratio) ([6]; constant value from ~ 20 min onwards): ~ 1 | ρplasma/blood (plasma/whole blood activity concentration ratio) ([6]; time t = 0, assumed 1/(1-Hkt), hematocrit 0.458): 1.85

N=C(N)NCc1ccc(OCCC[18F])c(Br)c1 [[^18F]LMI1195, [^18F]flubrobenguane]
Blocking of myocardial tracer uptake by desipramine [2]: not | Desipramine sensitivity of cardiac uptake (NET [7]): desipramine-sensitive | Desipramine sensitivity of cardiac uptake (NET [8]): not in rats | Desipramine sensitivity of cardiac uptake (NET [9]): desipramine-sensitive | Desipramine sensitivity of cardiac uptake (NET [10]): desipramine-sensitive

CNC(C)C(O)c1cccc(O)c1 (stereo not shown) [mHED, meta-hydroxyephedrine]
D50 (NET [5]): 90 to 100 nmol/kg

C[C@H](N)[C@H](O)c1cccc(O)c1 [metaraminol]
D50 (NET [5]): 90 to 100 nmol/kg
